Measured values as given in patent US9057727B2, “Screening methods using G-protein coupled receptors and related compositions” (The General Hospital Corporation, priority 2007, dated 2015).
Blank lines part the entries; values can stand above or below the compound they belong to. Square brackets hold non-standard residues; d marks the D form. Ends that are not written are not given here. Peptide text beside a SMILES is read from it. hArg = N=C(N)NCCCC[C@H](N)C(=O)O; Nle = CCCC[C@H](N)C(=O)O; Aib = CC(C)(N)C(=O)O

What was measured:
[1] = target: T1, human PTHR, G protein-uncoupled conformation (R^0) (Homo sapiens, UniProt Q03431); test: Competition binding to R0 conformation of hPTHR (COS-7 membranes, GTPγS, 125I-PTH(1-34) tracer); settings: Table 5; for R0:RG: fold weaker affinity for R0 than RG
T1 construct: expressed in transfected cells; host or cells: COS-7, transient (Fugene-6)
T1 sequence (Q03431 27-593): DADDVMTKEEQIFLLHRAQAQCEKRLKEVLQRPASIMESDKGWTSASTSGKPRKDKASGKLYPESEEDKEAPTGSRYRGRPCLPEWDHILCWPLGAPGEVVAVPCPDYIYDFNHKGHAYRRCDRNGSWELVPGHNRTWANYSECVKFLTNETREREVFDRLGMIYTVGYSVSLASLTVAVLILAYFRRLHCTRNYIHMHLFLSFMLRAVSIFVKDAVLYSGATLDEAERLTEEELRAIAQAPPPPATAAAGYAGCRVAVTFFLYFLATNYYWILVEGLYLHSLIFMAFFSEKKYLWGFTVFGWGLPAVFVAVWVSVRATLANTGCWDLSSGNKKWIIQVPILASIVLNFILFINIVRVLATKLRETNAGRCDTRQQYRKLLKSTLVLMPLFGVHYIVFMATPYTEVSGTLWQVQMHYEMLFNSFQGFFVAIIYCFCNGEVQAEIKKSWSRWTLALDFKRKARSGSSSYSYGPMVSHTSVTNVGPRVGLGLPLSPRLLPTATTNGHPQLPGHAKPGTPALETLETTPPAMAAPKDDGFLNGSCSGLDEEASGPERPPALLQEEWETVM
Method in brief: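 Membranes from hPTHR-transfected COS-7 cells (20-100 μg/mL protein) incubated 90 min with radioligand (~150,000 cpm/ml) and unlabeled ligands, then filtered. Specific binding expressed as % of binding without competitor.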

[2] = target: T2, hPTHR (Homo sapiens, UniProt Q03431); test: Delayed cAMP response after ligand wash-out in HKRK-B64 cells; assay type: cell-based; parameters: expressed in transfected cells; settings: HKRK-B64, 60 minutes after wash-out; read-out: cAMP response after wash-out, % of maximum response
T2 sequence (Q03431 27-593): T1 sequence (Q03431 27-593)

[3] = target: T2, hPTHR; test: cAMP dose-response in HKRK-B64 cells; assay type: cell-based; parameters: expressed in transfected cells; settings: for cAMP in HKRK-B64 cells Emax: basal 5.2 ± 0.9 pmole/well not subtracted
[4] = target: T2, hPTHR; test: Inositol phosphate production in COS-7/hPTHR cells; assay type: cell-based; parameters: expressed in transfected cells; host or cells: COS-7, transient (Fugene-6); settings: basal 330 ± 8 cpm/well not subtracted
[5] = target: T3, human PTHR, G protein-coupled conformation (RG) (Homo sapiens, UniProt Q03431); test: Competition binding to RG conformation of hPTHR (COS-7 membranes, GαsND, 125I-[Aib1,3,M]PTH(1-15) tracer); settings: Table 5; read-out: IC50 RG, ^125I-PTH(1-15) + GsND
T3 construct: expressed in transfected cells; host or cells: COS-7, transient (Fugene-6); membranes
T3 sequence (Q03431 27-593): T1 sequence (Q03431 27-593)

[6] = Calcemic action in normal rats (blood ionized calcium); assay type: in vivo; settings: normal and TPTX rats
Method in brief: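 Female SD-IGS rats, 8 weeks old, dosed intravenously at 1 ml/kg with peptides in PC-buffer (pH 5.0), 6 per group. Tail-vein blood ionized calcium corrected to pH 7.4 at baseline and 1, 2, 4, 6 h. Time course versus vehicle as mean ± SE.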

[7] = Blood ionized calcium in C57BL/6 mice after intravenous injection; assay type: in vivo; settings: 5 nmol/kg i.v.
Method: FIGS. 29A and 29B are graphs showing the effect of R^0 and RG selective PTH analogs on plasma cAMP and calcium in mice. FIGS. 29A and 29B show plasma cAMP concentrations in mice (C57BL/6, males, 3 months) that were administered either vehicle, rPTH(1-34) (SEQ ID NO:130), M-PTH(1-34) (M=A^1,Aib^3,Q^10,Har^11,A^12,W^14,R^19) (SEQ ID NO:12), or E^18,A^22,L^25,K^26-(EALK)-PTHrP(1-30) (SEQ ID NO:90) (5 nmol/kg; n=7 for cAMP, n=4 for calcium) intravenously. […] In the calcium experiment, blood was withdrawn before, and 1, 2, 4 and 6 hours after injection, and ionized calcium was measured using a Ca^++/pH analyzer.
We also characterized the effects of the EALK-PTHrP(1-30) peptide on cAMP production. Three month old male C57BL/6 mice were intravenously injected with either vehicle, rPTH(1-34), M-PTH(1-34) (M=A^1,Aib^3,Q^10,Har^11,A^12,W^14,R^19) or E^18,A^22,L^25,K^26-(EALK)-PTHrP(1-30) (5 nmol/kg). In the cAMP experiment (FIG. 29A), blood was withdrawn 10 minutes after injection and plasma level of cAMP was measured by RIA. In the calcium experiment (FIG. 29B), blood was withdrawn prior to injection and 1, 2, 4, and 6 hours after injection. Ionized calcium was measured using a Ca^++/pH analyzer.

[8] = Bone turnover markers (PINP, osteocalcin, CTX) in mice, daily treatment; assay type: in vivo; settings: 5 nmol/kg i.v. daily, days 6 and 13
Method: FIGS. 30A-30F are graphs showing the effects of PTH analogs on plasma bone markers in mice. Mice (C57BL/6, males, 3 months) were intravenously injected daily with either vehicle, rPTH(1-34) (SEQ ID NO:130), M-PTH(1-34) (SEQ ID NO:12), or (EALK)-PTHrP(1-30) (SEQ ID NO:90) (5 nmol/kg; n=7 group) for 14 days. Markers of bone turnover (PINP, CTX and osteocalcin) were assessed by ELISA in blood at day 6 (FIGS. 30A, 30C, and 30E, respectively) and 13 (FIGS. 30B, 30D, and 30F, respectively).
A second set of experiments was performed in which mice received 5 nmol/kg intravenous daily treatment with rPTH(1-34), M-PTH(1-34), or EALK-PTHrP(1-30) for 14 days. Blood samples were taken at days 6 and 13, and markers of bone turnover (PINP, osteocalcin and CTX) were assessed by ELISA.

[9] = Bone structural parameters after two-week daily treatment in mice (Piximus, microCT); assay type: in vivo
Method: FIG. 31 is a set of images showing the effects of two-week daily treatment of R^0 and RG ligands on trabecular and cortical bone structure in mice. Mice (C57BL/6, males, 3 months) were treated (i.v.) with either vehicle, rPTH(1-34) (SEQ ID NO:130), M-PTH(1-34) (SEQ ID NO:12), or E^18,A^22,L^25,K^26 (EALK)PTHrP(1-30) (SEQ ID NO:90) (5 nmol/kg; n=7 group), daily for 14 days, and femurs were analyzed by μCT.
As described above, mice were treated intravenously) with either vehicle, rPTH(1-34), M-PTH(1-34), or EALK-PTHrP(1-30) daily for 14 days.

R0:RG [1]: 753
R0:RG ([1]; listed as His^5-PTH(1-34)): 750
Emax [2]: 34%
EC50 ([3]; 30 min, room temperature, IBMX): 2.7 nM
cAMP in HKRK-B64 cells Emax [3]: 59 ± 12 picomole/well
IP in COS-7/hPTHR cells Emax [4]: 2,231 ± 229 cpm/well
Compound: CCCC[C@H](NC(=O)[C@H](CC(C)C)NC(=O)[C@H](CCC(N)=O)NC(=O)[C@H](Cc1c[nH]cn1)NC(=O)[C@H](CCC(=O)O)NC(=O)[C@H](CO)NC(=O)[C@@H](NC(=O)[C@H](C)N)C(C)C)C(=O)N[C@@H](Cc1c[nH]cn1)C(=O)N[C@@H](CC(N)=O)C(=O)N[C@@H](CC(C)C)C(=O)NCC(=O)N[C@@H](CCCCN)C(=O)N[C@@H](Cc1c[nH]cn1)C(=O)N[C@@H](CC(C)C)C(=O)N[C@@H](C)C(=O)N[C@@H](CO)C(=O)N[C@H](C(=O)N[C@@H](CCC(=O)O)C(=O)N[C@@H](CCCNC(=N)N)C(=O)N[C@@H](CCCC)C(=O)N[C@@H](CCC(N)=O)C(=O)N[C@@H](Cc1c[nH]c2ccccc12)C(=O)N[C@@H](CC(C)C)C(=O)N[C@@H](CCCNC(=N)N)C(=O)N[C@@H](CCCCN)C(=O)N[C@@H](CCCCN)C(=O)N[C@@H](CC(C)C)C(=O)N[C@@H](CCC(N)=O)C(=O)N[C@@H](CC(=O)O)C(=O)N[C@H](C(=O)N[C@@H](Cc1c[nH]cn1)C(=O)N[C@@H](CC(N)=O)C(=O)N[C@@H](Cc1ccc(O)cc1)C(N)=O)C(C)C)C(C)C [[His^5,Nle^8,21,Tyr^34]rPTH(1-34)NH2] (H-AVSEHQL[Nle]HNLGKHLASVER[Nle]QWLRKKLQDVHNY-NH2; N-terminus assumed)

IC50 [5]: 0.86 ± 0.24 nM
IC50 ([1]; IC50 RR^0, ^125I-PTH(1-34) + GTPγS): 4.2 ± 0.5 nM
R0:RG [1]: 5
cAMP in HKRK-B64 cells Emax [3]: 55 ± 12 picomole/well
IP in COS-7/hPTHR cells Emax [4]: 2,407 ± 138 cpm/well
Compound: CCCC[C@H](NC(=O)[C@H](CCCNC(=N)N)NC(=O)[C@H](CCC(=O)O)NC(=O)[C@@H](NC(=O)[C@H](CO)NC(=O)[C@H](C)NC(=O)[C@H](CC(C)C)NC(=O)[C@H](Cc1c[nH]cn1)NC(=O)[C@H](CCCCN)NC(=O)CNC(=O)[C@H](CC(C)C)NC(=O)[C@H](CC(N)=O)NC(=O)[C@H](Cc1c[nH]cn1)NC(=O)[C@H](CCCC)NC(=O)[C@H](CC(C)C)NC(=O)[C@H](CCC(N)=O)NC(=O)[C@@H](NC(=O)[C@H](CCC(=O)O)NC(=O)[C@H](CO)NC(=O)[C@@H](NC(=O)[C@H](C)N)C(C)C)[C@@H](C)CC)C(C)C)C(=O)N[C@@H](CCC(N)=O)C(=O)N[C@@H](Cc1c[nH]c2ccccc12)C(=O)N[C@@H](CC(C)C)C(=O)N[C@@H](CCCNC(=N)N)C(=O)N[C@@H](CCCCN)C(=O)N[C@@H](CCCCN)C(=O)N[C@@H](CC(C)C)C(=O)N[C@@H](CCC(N)=O)C(=O)N[C@@H](CC(=O)O)C(=O)N[C@H](C(=O)N[C@@H](Cc1c[nH]cn1)C(=O)N[C@@H](CC(N)=O)C(=O)N[C@@H](Cc1ccc(O)cc1)C(N)=O)C(C)C [[Nle^8,21,Tyr^34]rPTH(1-34)NH2, [Nle^8,21,Tyr^34]rat(r)PTH(1-34)NH2, reference compound]

Compound: Ala^1,Aib^3-[M]PTH(1-34) (AV[Aib]EIQLMHQ[hArg]AKWLNSMRRVEWLRKKLQDVHNF) [M-PTH(1-34), M=A1,Aib3,Q10,Har11,A12,W14,R19]
calcemic action compared with control peptides, in words [6]: higher calcemic actions than did PTH(1-34)
ionized calcium response, in words [7]: markedly more robust and more sustained than that of PTH(1-34)
effect on bone turnover markers, in words [8]: strongly induced increases in markers of both bone formation
Lumbar Spine BMD ([9]; Piximus, mice, 5 nmol/kg i.v. daily 14 days): 0.0524 ± 0.0002 g/cm^2
effect on trabecular/cortical bone and BMD, in words ([9]; mice, 5 nmol/kg i.v. daily 14 days): robustly increased trabecular bone, but also detectably diminished cortical bone
Conn-Dens. ([9]; microCT distal femur): 263 ± 25 1/mm^3
Cort Th. ([9]; microCT distal femur): 166 ± 6 μm
Tb · N ([9]; microCT distal femur): 5.22 ± 0.34 1/mm
Tb · Th ([9]; microCT distal femur): 71.5 ± 1.8 μm
TbSp ([9]; microCT distal femur): 208 ± 17 μm
TrabecularBV/TV ([9]; microCT distal femur): 35.0 ± 3.0%
BA ([9]; microCT mid femur): 0.837 ± 0.022 mm^2
BA/TA ([9]; microCT mid femur): 40.0 ± 0.8%
Cort Th. ([9]; microCT mid femur): 151 ± 3 μm
MA ([9]; microCT mid femur): 1.26 ± 0.04 mm^2
TA ([9]; microCT mid femur): 2.10 ± 0.06 mm^2
